Where two headings read alike, the source gives them in different places.
System: HCT116 cells
Test: Cell viability assay (CellTiter-Glo, 72 hours) in HCT116 human colorectal cancer cells
Type: cell-based
Conditions: Homo sapiens, HCT-116, HCT116, 72 hours, read-out: Activity
Summary of the method: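 Ten-point IC50 came from an asymmetric five-parameter fit of luminescence corrected to vehicle wells. ATP content was measured by CellTiter-Glo 72 h after dosing at 37 °C. Cells were seeded at 2,000/well the day before, with 0.5% DMSO in all wells.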

Structure (SMILES) | IC50 (Table 5) [nM] | also measured
CC#CCN1C(=O)c2ccccc2Sc2cc(NC(=S)Nc3ccc(OC)nc3)ccc21 [1-(10-(But-2-yn-1-yl)-11-oxo-10,11-dihydrodibenzo[b,f][1,4]thiazepin-7-yl)-3-(6-methoxypyridin-3-yl)thiourea] |  | IC50 (Table 4): < 500 nM
CC#CCN1C(=O)c2ccccc2Sc2cc(Nc3ncnc(C#N)n3)ccc21 [4-((10-(But-2-yn-1-yl)-11-oxo-10,11-dihydrodibenzo[b,f][1,4]thiazepin-7-yl)amino)-1,3,5-triazine-2-carbonitrile] | 1000 to 5000 | 
CC#CCN1C(=O)c2ccccc2Sc2cc(NC3COCC3C#N)ccc21 (centres unmarked) [4-((10-(But-2-yn-1-yl)-11-oxo-10,11-dihydrodibenzo[b,f][1,4]thiazepin-7-yl)amino)tetrahydrofuran-3-carbonitrile] |  | IC50 (Table 6): 1000 to 5000 nM
CC#CCN1C(=O)c2ccccc2Cc2cc(Nc3ncnc(C#N)c3C)ccc21 [6-((5-(But-2-yn-1-yl)-6-oxo-6,11-dihydro-5H-dibenzo[b,e]azepin-2-yl)amino)-5-methylpyrimidine-4-carbonitrile] | < 500 | 
CC#CCN1C(=O)c2ccccc2Sc2cc(Nc3ncc(C#N)cc3C)ccc21 [6-((10-(But-2-yn-1-yl)-11-oxo-10,11-dihydrodibenzo[b,f][1,4]thiazepin-7-yl)amino)-5-methylnicotinonitrile] | < 500 | 
CC#CCN1C(=O)c2ccccc2Sc2cc(Nc3nc(C#N)ccc3C)ccc21 [6-((10-(But-2-yn-1-yl)-11-oxo-10,11-dihydrodibenzo[b,f][1,4]thiazepin-7-yl)amino)-5-methylpicolinonitrile] | < 500 | 
CC#CCN1C(=O)c2ccccc2Sc2cc(Nc3nnc(C#N)cc3C)ccc21 [6-((10-(But-2-yn-1-yl)-11-oxo-10,11-dihydrodibenzo[b,f][1,4]thiazepin-7-yl)amino)-5-methylpyridazine-3-carbonitrile] | < 500 | 
CC#CCN1C(=O)c2ccccc2Sc2cc(Nc3ncnc(C#N)c3C)ccc21 [6-((10-(But-2-yn-1-yl)-11-oxo-10,11-dihydrodibenzo[b,f][1,4]thiazepin-7-yl)amino)-5-methylpyrimidine-4-carbonitrile] | < 500 | 
CC#CCN1C(=O)c2ccccc2Sc2cc(Nc3ccc(C#N)nn3)ccc21 [6-((10-(But-2-yn-1-yl)-11-oxo-10,11-dihydrodibenzo[b,f][1,4]thiazepin-7-yl)amino)pyridazine-3-carbonitrile] | < 500 | 
CC#CCN1C(=O)c2ccccc2Sc2cc(Nc3cc(C#N)ncn3)ccc21 [6-((10-(But-2-yn-1-yl)-11-oxo-10,11-dihydrodibenzo[b,f][1,4]thiazepin-7-yl)amino)pyrimidine-4-carbonitrile] | < 500 | 
CC#CCN1C(=O)c2ccccc2Sc2cc(NC3CC4(COC4)C3)ccc21 [7-((2-Oxaspiro[3.3]heptan-6-yl)amino)-10-(but-2-yn-1-yl)dibenzo[b,f][1,4]thiazepin-11 (10H)-one] |  | IC50 (Table 6): < 500 nM
CC#CCN1C(=O)c2ccccc2Sc2cc(NC3CC4CCC3C4)ccc21 (centres unmarked) [7-(Bicyclo[2.2.1]heptan-2-ylamino)-10-(but-2-yn-1-yl)dibenzo[b,f][1,4]thiazepin-11 (10H)-one] |  | IC50 (Table 6): < 500 nM
CC#CCN1C(=O)c2ccc(F)cc2Sc2cc(Nc3ncccc3F)ccc21 [10-(But-2-yn-1-yl)-3-fluoro-7-((3-fluoropyridin-2-yl)amino)dibenzo[b,f][1,4]thiazepin-11 (10H)-one] | < 500 | 
CC#CCN1C(=O)c2ccc(F)cc2Sc2cc(Nc3nccnc3OC)ccc21 [10-(But-2-yn-1-yl)-3-fluoro-7-((3-methoxypyrazin-2-yl)amino)dibenzo[b,f][1,4]thiazepin-11 (10H)-one] | 500 to 1000 | 
CC#CCN1C(=O)c2ccc(F)cc2Sc2cc(Nc3ncccc3OC)ccc21 [10-(But-2-yn-1-yl)-3-fluoro-7-((3-methoxypyridin-2-yl)amino)dibenzo[b,f][1,4]thiazepin-11 (10H)-one] | < 500 | 
CC#CCN1C(=O)c2ccc(F)cc2Sc2cc(Nc3nccnc3C)ccc21 [10-(But-2-yn-1-yl)-3-fluoro-7-((3-methylpyrazin-2-yl)amino)dibenzo[b,f][1,4]thiazepin-11 (10H)-one] | < 500 | 

More lines, main results first:

IC50 (Table 5) [nM] | Structure (SMILES) | also measured
< 500 | CC#CCN1C(=O)c2ccccc2Cc2cc(Nc3ncccc3C#N)ccc21 [2-((5-(But-2-yn-1-yl)-6-oxo-6,11-dihydro-5H-dibenzo[b,e]azepin-2-yl)amino) nicotinonitrile] | 
< 500 | CC#CCN1C(=O)c2ccccc2Cc2cc(Nc3nccc(C#N)c3C)ccc21 [2-((5-(But-2-yn-1-yl)-6-oxo-6,11-dihydro-5H-dibenzo[b,e]azepin-2-yl)amino)-3-methylisonicotinonitrile] | 
< 500 | CC#CCN1C(=O)c2ccc(F)cc2Sc2cc(Nc3ncccc3C#N)ccc21 [2-((10-(But-2-yn-1-yl)-3-fluoro-11-oxo-10,11-dihydrodibenzo[b,f][1,4]thiazepin-7-yl)amino) nicotinonitrile] | 
< 500 | CC#CCN1C(=O)c2ccccc2Sc2cc(Nc3cc(C#N)ccn3)ccc21 [2-((10-(But-2-yn-1-yl)-11-oxo-10,11-dihydrodibenzo[b,f][1,4]thiazepin-7-yl)amino) isonicotinonitrile] | 
< 500 | CC#CCN1C(=O)c2ccccc2Sc2cc(Nc3nccc(C#N)c3F)ccc21 [2-((10-(But-2-yn-1-yl)-11-oxo-10,11-dihydrodibenzo[b,f][1,4]thiazepin-7-yl)amino)-3-fluoroisonicotinonitrile] | 
< 500 | CC#CCN1C(=O)c2ccccc2Sc2cc(Nc3nccc(C#N)c3C)ccc21 [2-((10-(But-2-yn-1-yl)-11-oxo-10,11-dihydrodibenzo[b,f][1,4]thiazepin-7-yl)amino)-3-methylisonicotinonitrile] | 
< 500 | CC#CCN1C(=O)c2ccccc2Sc2cc(Nc3nccc(C#N)n3)ccc21 [2-((10-(But-2-yn-1-yl)-11-oxo-10,11-dihydrodibenzo[b,f][1,4]thiazepin-7-yl)amino)pyrimidine-4-carbonitrile] | 
< 500 | CC#CCN1C(=O)c2ccccc2Cc2cc(Nc3nccnc3C#N)ccc21 [3-((5-(But-2-yn-1-yl)-6-oxo-6,11-dihydro-5H-dibenzo[b,e]azepin-2-yl)amino) pyrazine-2-carbonitrile] | 
< 500 | CC#CCN1C(=O)c2ccccc2Sc2cc(Nc3cccnc3C#N)ccc21 [3-((10-(But-2-yn-1-yl)-11-oxo-10,11-dihydrodibenzo[b,f][1,4]thiazepin-7-yl)amino) picolinonitrile] | 
< 500 | CC#CCN1C(=O)c2ccccc2Sc2cc(Nc3nnccc3C#N)ccc21 [3-((10-(But-2-yn-1-yl)-11-oxo-10,11-dihydrodibenzo[b,f][1,4]thiazepin-7-yl)amino)pyridazine-4-carbonitrile] | 
< 500 | CC#CCN1C(=O)c2ccccc2Sc2cc(Nc3ccncc3C#N)ccc21 [4-((10-(But-2-yn-1-yl)-11-oxo-10,11-dihydrodibenzo[b,f][1,4]thiazepin-7-yl)amino) nicotinonitrile] | 
< 500 | CC#CCN1C(=O)c2ccccc2Cc2cc(Nc3ncccc3F)ccc21 [5-(But-2-yn-1-yl)-2-((3-fluoropyridin-2-yl)amino)-5H-dibenzo[b,e]azepin-6 (11H)-one] | 
< 500 | CC#CCN1C(=O)c2ccccc2Cc2cc(Nc3ncccc3C)ccc21 [5-(But-2-yn-1-yl)-2-((3-methylpyridin-2-yl)amino)-5H-dibenzo[b,e]azepin-6 (11H)-one] | 
